Where a SMILES comes first, the peptide text is derived from it. [ ]: non-standard residue; d: D form. Phe(4-NH2) = Nc1ccc(C[C@H](N)C(=O)O)cc1; Sta = CC(C)C[C@H](N)[C@@H](O)CC(=O)O
Tested on: HIV-1 protease
Conditions: for potency relative to the P-9 peptide: protease inhibitor potency compared with P-9 as standard
Procedure: A 100 µl control reaction was established containing 10 to 20 µI of crude protease, about 2 µl of the gag supernatant and final concentrations of 50 mM MES Buffer (pH 5.5), 1 mM DTT and 25 mM NaCI. Inhibition assays were performed by pre-incubating the crude protease with an inhibitory compound at room temperature for about 30 minutes before adding the gag supernatant to the reaction. Both the control and the experimental reactions were incubated from three to sixteen hours at 37° C. The reactions were then electrophoresed and blotted onto nitrocellulose filters. Monoclonal antibodies which recognize epitopes on p24 and p17 viral proteins were contacted with the filter then visualized using standard biotinylation or radionuclear techniques. Compounds which prevented the maturation of the gag polypeptide into mature viral proteins p24 and p17 were then ranked according to their HIV-1 protease inhibitory activity.
About 10 to 20 µl of the crude protease lysate was mixed with about 2 µl of the gag supernatant. The mixture was then brought to a total volume of 100 µl by the addition of distilled water, MES buffer (2-(N-Morpholino]ethanesulfonic acid) (pH 5.5 to a total concentration of 50 mM), DTT (dithiolthreitol) (to a total concentration of 1 mM) and NaCl (to a total concentration of 25 mM). This reaction mixture was mixed gently then incubated from 3 hours to overnight at 37° C.
Next, about 25 µl of the reaction was mixed with loading buffer and subjected to polyacrylamide gel electrophoresis on a 12.5% Laemmli gel under reducing conditions. The proteins were transferred onto a nitrocellulose filter using standard "Western Blot" electrophoresis at 500 mAmps for 35 minutes at room temperature. The filter was air-dried, then non-specific immunoreaction was blocked by washing the filter for 30 minutes at 4° C in a solution of 3% non-fat dry milk powder in phosphate buffered saline (PBS).
Monoclonal antibodies against p17 and/or p24 (available from Dupont, Wilmington, Delaware) were added to about 40 ml of the 3% milk/PBS solution to a final concentration of 2 µg/ml. The nitrocellulose filter was added to the antisera solution and slowly rocked for 2 hours at 4 C. The filter then was removed and washed 5 times with PBS, then the maturation of the gag gene was determined by reaction with 1^125- labeled protein A or by reaction with biotinylated anti-mouse lgG antibodies (Vecta Stain@).
To run the I^125-labeled protein A reaction, about 10 µCi of I^125-labeled protein A was added to 100 ml of the 3% milk/PBS solution. The filter was rocked in this solution for 2 hours at 4° C, washed three times with PBS, then two times with PBS and 0.1% Tween 20. The filter was then air-dried and exposed to x-ray film for autoradiography.
The Vecta Stain@ (Vector Laboratories, Burlingome, California) procedure was performed according to the manufacturer's recommendations. Four drops of the biotinylated IgG was added to 40 mls of the 3% Milk/PBS solution, then the filter was rocked in this solution for 60 minutes at 4° C. The filter was washed five times with PBS, then rocked for 30 to 60 minutes at 4 C in Reagent ABC. Reagent ABC was prepared by adding 4 drops of Reagent A (Avidin DH) and 4 drops of Reagent B (biotinylated peroxidase) to 20 ml of 3% Milk/PBS. The filter was then washed five times with PBS, then the filter was developed by washing it for 5 to 10 minutes in 10 ml of PBS containing 0.02% H202 and 10 ml of 4-chloro-1 naphthol. When the color was fully developed, the filter was washed with distilled water and air-dried.
Following the procedure, it is simple to determine the activity of the HIV-1 protease encoded on plasmid pHP10D and produced in E. coli cells.

## COc1ccc(C[C@H](NC(C)=O)C(=O)N2CCC[C@H]2C(=O)N[C@@H](Cc2ccccc2)C(=O)N[C@H](C(=O)N[C@@H](CC(C)C)[C@@H](O)CC(=O)N[C@@H](CC(C)C)C(=O)N[C@@H](Cc2ccccc2)C(=O)N[C@@H](Cc2ccc(O)cc2)C(=O)N[C@@H](CC(C)C)C(N)=O)C(C)C)cc1 [P-30, Ac-YOM-Pro-Phe-Val-Statine-Leu-Phe-Tyr-Leu-NH2] (Ac-Y(Me)PFV[Sta]LFYL-NH2)
  potency relative to the P-9 peptide: about 1.5 times

## COc1ccc(C[C@H](NC(C)=O)C(=O)N2CCC[C@H]2C(=O)N[C@@H](Cc2ccccc2)C(=O)N[C@H](C(=O)N[C@@H](CC(C)C)[C@@H](O)CC(=O)N[C@@H](CC(C)C)C(=O)N[C@@H](Cc2ccccc2)C(N)=O)C(C)C)cc1 [P-9, Ac-YOM-Pro-Phe-Val-Statine-Leu-Phe-NH2] (Ac-Y(Me)PFV[Sta]LF-NH2)
Protease inhibitor potency compared with P-7
  potency relative to P-7: increases the potency three to four times

## COc1ccc(C[C@H](NC(=O)[C@H](Cc2ccc(O)cc2)NC(=O)CNC(C)=O)C(=O)N2CCC[C@H]2C(=O)N[C@@H](Cc2ccccc2)C(=O)N[C@H](C(=O)N[C@@H](CC(C)C)[C@@H](O)CC(=O)N[C@@H](CC(C)C)C(=O)N[C@@H](Cc2ccccc2)C(N)=O)C(C)C)cc1 [P-29, Ac-Gly-Tyr-YOM-Pro-Phe-Val-Statine-Leu-Phe-NH2] (Ac-GYY(Me)PFV[Sta]LF-NH2)
  potency relative to the P-9 peptide: three times more potent

## CC(C)C[C@H](NC(=O)C[C@H](O)[C@H](CC(C)C)NC(=O)[C@@H](NC(=O)[C@H](Cc1ccccc1)NC(=O)[C@@H]1CCCN1C(=O)[C@H](Cc1ccc(N)cc1)NC(=O)[C@@H]1CCCN1)C(C)C)C(=O)N[C@@H](Cc1ccccc1)C(=O)N[C@@H](Cc1ccc(N)cc1)C(N)=O [P-1, H-Pro-paF-Pro-Phe-Val-Statine-Leu-Phe-paF-NH2] (H-P[Phe(4-NH2)]PFV[Sta]LF[Phe(4-NH2)]-NH2)
(S,S) Statine versus R,S-Sta peptide
  potency relative to the R,S-diastereomer (P-28): 20 times

## CC(=O)N[C@H](C(=O)N[C@@H](CC(C)C)[C@@H](O)CC(=O)N[C@@H](CC(C)C)C(=O)N[C@@H](Cc1ccccc1)C(N)=O)C(C)C [Ac-Val-Statine-Leu-Phe-NH2] (Ac-V[Sta]LF-NH2)
  HIV protease inhibitory activity (result in words): inactive

## COc1ccc(C[C@H](NC(C)=O)C(=O)N[C@@H](Cc2ccccc2)C(=O)N[C@H](C(=O)N[C@@H](CC(C)C)[C@@H](O)CC(=O)N[C@@H](CC(C)C)C(=O)N[C@@H](Cc2ccccc2)C(=O)N[C@@H](Cc2ccc(O)cc2)C(=O)N[C@@H](CC(C)C)C(N)=O)C(C)C)cc1 [Ac-YOM-Phe-Val-Statine-Leu-Phe-Tyr-Leu-NH2] (Ac-Y(Me)FV[Sta]LFYL-NH2)
  HIV protease inhibitory activity (result in words): totally inactive
